Columns and labels:
cathepsin B = cathepsin B (Homo sapiens, UniProt P07858); test: Inhibition of recombinant cathepsin B; details: read-out: Cathepsin B IC50; enzyme 360nM, substrate 50μM, pH 6.25, 30min
cathepsin L = cathepsin L (Homo sapiens, UniProt P07711); test: Inhibition of recombinant cathepsin L; details: read-out: Cathepsin L IC50; enzyme 100nM, substrate 10μM, pH 6.25, 30min
Chain of cathepsin L (P07711 114-333, species assumed): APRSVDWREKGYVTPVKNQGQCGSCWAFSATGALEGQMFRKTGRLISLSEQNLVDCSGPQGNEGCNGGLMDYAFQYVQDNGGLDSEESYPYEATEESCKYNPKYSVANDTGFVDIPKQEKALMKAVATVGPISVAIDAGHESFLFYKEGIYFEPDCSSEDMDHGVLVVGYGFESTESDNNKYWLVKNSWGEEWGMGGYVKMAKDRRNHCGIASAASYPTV

IC50 (cathepsin B): 0.78 µM
IC50 (cathepsin L): 2.98 µM
Substance: JPM-OEt
